Results reported in publication PMC12366332 (Applied and Environmental Microbiology, 2025).
Like-named read-outs stand apart in the source and are kept apart here. Square brackets hold non-standard residues; d marks the D form. Peptide text beside a SMILES is read from it. * marks the point of attachment. Butyryl = CCCC(=O)*

Key:
horse erythrocytes = settings: red cells of horse, 50 µM
tobacco leaves = settings: 150 µM; after 48 h
[1] = system: X. fastidiosa subsp. fastidiosa IVIA 5387.2
E. coli 0111:B4 LPS = type: biochemical, Escherichia coli

CCCC(=O)NCCCC[C@H](NC(=O)[C@H](CCCCN)NC(=O)[C@@H](Cc1ccccc1)NC(=O)[C@H](CC(C)C)NC(=O)[C@H](CCCCN)NC(=O)[C@H](CCCCN)NC(C)=O)C(=O)N[C@H](C(=O)N[C@@H](CC(C)C)C(=O)N[C@@H](CCCCN)C(=O)N[C@@H](Cc1ccc(O)cc1)C(=O)N[C@@H](CC(C)C)C(N)=O)[C@@H](C)CC [BP473, Ac-KKLfKK(COC3H7)ILKYL-NH2]
Hemolytic activity (%) (horse erythrocytes): 7%
Phytotoxicity: diameter of the lesion (tobacco leaves): 4 mm
Bactericidal activity Reduction in viability (Log N0/N) ([1]; 3.1 µM): 0,64 Log N0/N
Bactericidal activity Level ([1]; 50 µM): Very High (key: Very High: very high bactericidal activity (>2.5 log); High: high bactericidal activity (between 2.0 and 2.5 log); Moderate: a moderate activity (between 1.5 and 2.0 log); Low: low active (<1.5 log))
EC50 ([1]; 3 h): 4.75 µM

CCCC(=O)NCCCC[C@H](NC(=O)[C@@H](NC(=O)[C@H](CCCCN)NC(=O)[C@H](CCCCN)NC(=O)[C@@H](Cc1ccccc1)NC(=O)[C@H](CC(C)C)NC(=O)[C@H](CCCCN)NC(=O)[C@H](CCCCN)NC(C)=O)[C@@H](C)CC)C(=O)N[C@@H](CCCCN)C(=O)N[C@@H](Cc1ccc(O)cc1)C(=O)N[C@@H](CC(C)C)C(N)=O [BP474, Ac-KKLfKKIK(COC3H7)KYL-NH2]
Hemolytic activity (%) (horse erythrocytes): 0%
Phytotoxicity: diameter of the lesion (tobacco leaves): 2 mm
Bactericidal activity Level ([1]; 50 µM): Moderate (key: Very High: very high bactericidal activity (>2.5 log); High: high bactericidal activity (between 2.0 and 2.5 log); Moderate: a moderate activity (between 1.5 and 2.0 log); Low: low active (<1.5 log))
Bactericidal activity Reduction in viability (Log N0/N) ([1]; 50 µM): 1,76 Log N0/N

CCCC(=O)NCCCC[C@H](NC(=O)[C@H](CCCCN)NC(=O)[C@H](CC(C)C)NC(=O)[C@@H](NC(=O)[C@H](CCCCN)NC(=O)[C@H](CCCCN)NC(=O)[C@@H](Cc1ccccc1)NC(=O)[C@H](CC(C)C)NC(=O)[C@H](CCCCN)NC(=O)[C@H](CCCCN)NC(C)=O)[C@@H](C)CC)C(=O)N[C@@H](CC(C)C)C(N)=O [BP475, Ac-KKLfKKILKK(COC3H7)L-NH2]
Hemolytic activity (%) (horse erythrocytes): 0%
Phytotoxicity: diameter of the lesion (tobacco leaves): 4 mm
Bactericidal activity Reduction in viability (Log N0/N) ([1]; 12.5 µM): 1,04 Log N0/N
Bactericidal activity Level ([1]; 50 µM): High (key: Very High: very high bactericidal activity (>2.5 log); High: high bactericidal activity (between 2.0 and 2.5 log); Moderate: a moderate activity (between 1.5 and 2.0 log); Low: low active (<1.5 log))

CCCC(=O)N[C@@H](CCCCN)C(=O)N[C@@H](CCCCN)C(=O)N[C@@H](CC(C)C)C(=O)N[C@H](Cc1ccccc1)C(=O)N[C@@H](CCCCN)C(=O)N[C@@H](CCCCN)C(=O)N[C@H](C(=O)N[C@@H](CC(C)C)C(=O)N[C@@H](CCCCN)C(=O)N[C@@H](Cc1ccc(O)cc1)C(=O)N[C@@H](CC(C)C)C(N)=O)[C@@H](C)CC [BP485, C3H7CO-KKLfKKILKYL-NH2]
Hemolytic activity (%) (horse erythrocytes): 3%
Phytotoxicity: diameter of the lesion (tobacco leaves): 3 mm
Bactericidal activity Reduction in viability (Log N0/N) ([1]; 12.5 µM): 0,49 Log N0/N
Bactericidal activity Level ([1]; 50 µM): Moderate (key: Very High: very high bactericidal activity (>2.5 log); High: high bactericidal activity (between 2.0 and 2.5 log); Moderate: a moderate activity (between 1.5 and 2.0 log); Low: low active (<1.5 log))
Bactericidal activity Reduction in viability (Log N0/N) ([1]; 50 µM): 1,92 Log N0/N

CCCCCCCCCCCC(=O)NCCCC[C@H](NC(=O)[C@@H](NC(=O)[C@H](CCCCN)NC(=O)[C@H](CCCCN)NC(=O)[C@@H](Cc1ccccc1)NC(=O)[C@H](CC(C)C)NC(=O)[C@H](CCCCN)NC(=O)[C@H](CCCCN)NC(C)=O)[C@@H](C)CC)C(=O)N[C@@H](CCCCN)C(=O)N[C@@H](Cc1ccc(O)cc1)C(=O)N[C@@H](CC(C)C)C(N)=O [BP490, Ac-KKLfKKIK(COC11H23)KYL-NH2]
Hemolytic activity (%) (horse erythrocytes): 100%
Phytotoxicity: diameter of the lesion (tobacco leaves): 6 mm
Bactericidal activity Reduction in viability (Log N0/N) ([1]; 3.1 µM): 1,28 Log N0/N
Bactericidal activity Level ([1]; 50 µM): High (key: Very High: very high bactericidal activity (>2.5 log); High: high bactericidal activity (between 2.0 and 2.5 log); Moderate: a moderate activity (between 1.5 and 2.0 log); Low: low active (<1.5 log))

CCCCCC(=O)NCCCC[C@H](NC(=O)[C@H](CCCCN)NC(=O)[C@H](CCCCN)NC(=O)[C@@H](Cc1ccccc1)NC(=O)[C@H](CC(C)C)NC(=O)[C@H](CCCCN)NC(=O)[C@H](CCCCN)NC(C)=O)C(=O)N[C@@H](CC(C)C)C(=O)N[C@@H](CCCCN)C(=O)N[C@@H](Cc1ccc(O)cc1)C(=O)N[C@@H](CC(C)C)C(N)=O [BP494, Ac-KKLfKKK(COC5H11)LKYL-NH2]
Hemolytic activity (%) (horse erythrocytes): 0%
Phytotoxicity: diameter of the lesion (tobacco leaves): 6 mm
LPS neutralization Ratio (treatment/NTC) (E. coli 0111:B4 LPS): 0,51
Bactericidal activity Level ([1]; 50 µM): Low (key: Very High: very high bactericidal activity (>2.5 log); High: high bactericidal activity (between 2.0 and 2.5 log); Moderate: a moderate activity (between 1.5 and 2.0 log); Low: low active (<1.5 log))
Bactericidal activity Reduction in viability (Log N0/N) ([1]; 50 µM): 1,21 Log N0/N

CCCCCC(=O)NCCCC[C@H](NC(=O)[C@H](Cc1ccc(O)cc1)NC(=O)[C@H](CCCCN)NC(=O)[C@H](CC(C)C)NC(=O)[C@@H](NC(=O)[C@H](CCCCN)NC(=O)[C@H](CCCCN)NC(=O)[C@@H](Cc1ccccc1)NC(=O)[C@H](CC(C)C)NC(=O)[C@H](CCCCN)NC(=O)[C@H](CCCCN)NC(C)=O)[C@@H](C)CC)C(N)=O [BP495, Ac-KKLfKKILKYK(COC5H11)-NH2]
Hemolytic activity (%) (horse erythrocytes): 0%
Phytotoxicity: diameter of the lesion (tobacco leaves): 6 mm
LPS neutralization Ratio (treatment/NTC) (E. coli 0111:B4 LPS): 0,55
Bactericidal activity Reduction in viability (Log N0/N) ([1]; 12.5 µM): 0,03 Log N0/N
Bactericidal activity Level ([1]; 50 µM): High (key: Very High: very high bactericidal activity (>2.5 log); High: high bactericidal activity (between 2.0 and 2.5 log); Moderate: a moderate activity (between 1.5 and 2.0 log); Low: low active (<1.5 log))

CCCC(=O)NCCCC[C@H](NC(=O)[C@H](Cc1ccc(O)cc1)NC(=O)[C@H](CCCCN)NC(=O)[C@H](CC(C)C)NC(=O)[C@@H](NC(=O)[C@H](CCCCN)NC(=O)[C@H](CCCCN)NC(=O)[C@@H](Cc1ccccc1)NC(=O)[C@H](CC(C)C)NC(=O)[C@H](CCCCN)NC(=O)[C@H](CCCCN)NC(C)=O)[C@@H](C)CC)C(N)=O [BP496, Ac-KKLfKKILKYK(COC3H7)-NH2] (Ac-KKL[dF]KKILKYK(Butyryl)-NH2)
Hemolytic activity (%) (horse erythrocytes): 0%
Phytotoxicity: diameter of the lesion (tobacco leaves): 4 mm
LPS neutralization Ratio (treatment/NTC) (E. coli 0111:B4 LPS): 0,92
Bactericidal activity Level ([1]; 50 µM): Low (key: Very High: very high bactericidal activity (>2.5 log); High: high bactericidal activity (between 2.0 and 2.5 log); Moderate: a moderate activity (between 1.5 and 2.0 log); Low: low active (<1.5 log))
Bactericidal activity Reduction in viability (Log N0/N) ([1]; 50 µM): 0,69 Log N0/N

CCCC(=O)NCCCC[C@H](NC(=O)[C@@H](Cc1ccccc1)NC(=O)[C@H](CC(C)C)NC(=O)[C@H](CCCCN)NC(=O)[C@H](CCCCN)NC(C)=O)C(=O)N[C@@H](CCCCN)C(=O)N[C@H](C(=O)N[C@@H](CC(C)C)C(=O)N[C@@H](CCCCN)C(=O)N[C@@H](Cc1ccc(O)cc1)C(=O)N[C@@H](CC(C)C)C(N)=O)[C@@H](C)CC [BP498, Ac-KKLfK(COC3H7)KILKYL-NH2]
Hemolytic activity (%) (horse erythrocytes): 9%
Phytotoxicity: diameter of the lesion (tobacco leaves): 7 mm
LPS neutralization Ratio (treatment/NTC) (E. coli 0111:B4 LPS): 0,40
Bactericidal activity Level ([1]; 50 µM): Moderate (key: Very High: very high bactericidal activity (>2.5 log); High: high bactericidal activity (between 2.0 and 2.5 log); Moderate: a moderate activity (between 1.5 and 2.0 log); Low: low active (<1.5 log))
Bactericidal activity Reduction in viability (Log N0/N) ([1]; 50 µM): 1,58 Log N0/N

CCCC(=O)NCCCC[C@H](NC(=O)[C@H](CC(C)C)NC(=O)[C@@H](NC(=O)[C@H](CCCCN)NC(=O)[C@H](CCCCN)NC(=O)[C@@H](Cc1ccccc1)NC(=O)[C@H](CC(C)C)NC(=O)[C@H](CCCCN)NC(=O)[C@H](CCCCN)NC(C)=O)[C@@H](C)CC)C(=O)N[C@@H](Cc1ccc(O)cc1)C(=O)N[C@@H](CC(C)C)C(N)=O [BP499, Ac-KKLfKKILK(COC3H7)YL-NH2]
Hemolytic activity (%) (horse erythrocytes): 2%
Phytotoxicity: diameter of the lesion (tobacco leaves): 7 mm
LPS neutralization Ratio (treatment/NTC) (E. coli 0111:B4 LPS): 0,34
Bactericidal activity Reduction in viability (Log N0/N) ([1]; 3.1 µM): 0,63 Log N0/N
Bactericidal activity Level ([1]; 50 µM): High (key: Very High: very high bactericidal activity (>2.5 log); High: high bactericidal activity (between 2.0 and 2.5 log); Moderate: a moderate activity (between 1.5 and 2.0 log); Low: low active (<1.5 log))

CCCCCCCCCCCC(=O)NCCCC[C@H](NC(=O)[C@H](CCCCN)NC(=O)[C@H](CCCCN)NC(C)=O)C(=O)N[C@H](Cc1ccccc1)C(=O)N[C@@H](CCCCN)C(=O)N[C@@H](CCCCN)C(=O)N[C@H](C(=O)N[C@@H](CC(C)C)C(=O)N[C@@H](CCCCN)C(=O)N[C@@H](Cc1ccc(O)cc1)C(=O)N[C@@H](CC(C)C)C(N)=O)[C@@H](C)CC [BP500, Ac-KKK(COC11H23)fKKILKYL-NH2]
Hemolytic activity (%) (horse erythrocytes): 99%
Phytotoxicity: diameter of the lesion (tobacco leaves): 8 mm
Bactericidal activity Level ([1]; 50 µM): Low (key: Very High: very high bactericidal activity (>2.5 log); High: high bactericidal activity (between 2.0 and 2.5 log); Moderate: a moderate activity (between 1.5 and 2.0 log); Low: low active (<1.5 log))
Bactericidal activity Reduction in viability (Log N0/N) ([1]; 50 µM): 1,37 Log N0/N

CCCC(=O)NCCCC[C@H](NC(=O)[C@H](CCCCN)NC(=O)[C@H](CC(C)C)NC(=O)[C@@H](NC(=O)[C@H](CCCCN)NC(=O)[C@H](CCCCN)NC(=O)[C@H](Cc1c[nH]cn1)NC(=O)[C@H](CC(C)C)NC(=O)[C@H](CCCCN)NC(=O)[C@H](CCCCN)NC(C)=O)[C@@H](C)CC)C(=O)N[C@@H](CC(C)C)C(N)=O [BP501, Ac-KKLHKKILKK(COC3H7)L-NH2] (Ac-KKLHKKILKK(Butyryl)L-NH2)
Hemolytic activity (%) (horse erythrocytes): 2%
Phytotoxicity: diameter of the lesion (tobacco leaves): 0 mm
LPS neutralization Ratio (treatment/NTC) (E. coli 0111:B4 LPS): 0,71
Bactericidal activity Level ([1]; 50 µM): Low (key: Very High: very high bactericidal activity (>2.5 log); High: high bactericidal activity (between 2.0 and 2.5 log); Moderate: a moderate activity (between 1.5 and 2.0 log); Low: low active (<1.5 log))
Bactericidal activity Reduction in viability (Log N0/N) ([1]; 50 µM): 0,30 Log N0/N
